Results reported in patent US6916812B2, “Alpha-aminoamide derivatives as melanocortin agonists” (Bristol-Myers Squibb Company, priority 2001, dated 2005).

Molecular target: T1, cloned human MC4R (Homo sapiens, UniProt P32245)
T1 construct: made in house; host or cells: Hi5 insect cells (baculovirus infection); membrane preparation
Experiment: Membrane binding assay: competitive inhibition of [125I]NDP-α-MSH binding
Details: for Displacement Rate (%) (at 10 μM) / inhibition at 10 µM: [125I]NDP-α-MSH displacement; for IC50: read-out: MC4R IC50; for inhibition at 10 µM: read-out: Displacement Rate (%) (at 10 μM)

T1 sequence (P32245 whole entry): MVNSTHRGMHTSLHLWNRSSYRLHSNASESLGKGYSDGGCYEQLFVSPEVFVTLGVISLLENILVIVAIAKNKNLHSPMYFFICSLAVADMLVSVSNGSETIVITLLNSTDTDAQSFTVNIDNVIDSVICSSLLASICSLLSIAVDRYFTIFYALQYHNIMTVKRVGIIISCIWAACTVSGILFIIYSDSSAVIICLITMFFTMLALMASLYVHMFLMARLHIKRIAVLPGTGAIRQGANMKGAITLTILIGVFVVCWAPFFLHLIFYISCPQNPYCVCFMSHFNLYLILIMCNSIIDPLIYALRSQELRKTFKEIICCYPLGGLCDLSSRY

Row | Compound | Displacement Rate (%) (at 10 μM) | IC50 | inhibition at 10 µM
1 | N[C@@H](Cc1ccc(OCCc2ccc(F)cc2)cc1)C(=O)N1CCN(Cc2cccc(Cl)c2Cl)CC1 [Example 247] | +++ (+++ = 91-100) | < 1500 nM | 
2 | N[C@@H](Cc1ccc(OCCc2cccc(Br)c2)cc1)C(=O)N1CCN(Cc2cccc(Cl)c2Cl)CC1 [Example 248] | +++ (+++ = 91-100) | < 1500 nM | 
3 | N[C@@H](Cc1ccc(OCCc2cccc(Cl)c2)cc1)C(=O)N1CCN(Cc2cccc(Cl)c2Cl)CC1 [Example 249] | +++ (+++ = 91-100) | < 1500 nM | 
4 | N[C@@H](Cc1ccc(OCCc2cccc(OCc3ccccc3)c2)cc1)C(=O)N1CCN(Cc2cccc(Cl)c2Cl)CC1 [Example 250] | +++ (+++ = 91-100) | < 1500 nM | 
5 | N[C@@H](Cc1ccc(OCCc2ccc(OCc3ccccc3)cc2)cc1)C(=O)N1CCN(Cc2cccc(Cl)c2Cl)CC1 [Example 251] | +++ (+++ = 91-100) | < 1500 nM | 
6 | N[C@@H](Cc1ccc(OCCc2ccccc2OCc2ccccc2)cc1)C(=O)N1CCN(Cc2cccc(Cl)c2Cl)CC1 [Example 252] | +++ (+++ = 91-100) | < 1500 nM | 
7 | N[C@@H](Cc1ccc(OCCc2ccccc2-c2ccccc2)cc1)C(=O)N1CCN(Cc2cccc(Cl)c2Cl)CC1 [Example 253] | +++ (+++ = 91-100) | < 1500 nM | 
8 | COc1ccc(CCOc2ccc(C[C@H](N)C(=O)N3CCN(Cc4cccc(Cl)c4Cl)CC3)cc2)cc1 [Example 254] | +++ (+++ = 91-100) | < 1500 nM | 
9 | N[C@@H](Cc1ccc(OCCc2cccc(C(F)(F)F)c2)cc1)C(=O)N1CCN(Cc2cccc(Cl)c2Cl)CC1 [Example 255] | +++ (+++ = 91-100) | < 1500 nM | 
10 | N[C@@H](Cc1ccc(OCCc2ccc3ccccc3c2)cc1)C(=O)N1CCN(Cc2cccc(Cl)c2Cl)CC1 [Example 256] | +++ (+++ = 91-100) | < 1500 nM | 
11 | N[C@@H](Cc1ccc(OCCc2cccc([N+](=O)[O-])c2)cc1)C(=O)N1CCN(Cc2cccc(Cl)c2Cl)CC1 [Example 257] | +++ (+++ = 91-100) | 1500 to 3000 nM | 
12 | N[C@@H](Cc1ccc(OCCc2ccc([N+](=O)[O-])cc2)cc1)C(=O)N1CCN(Cc2cccc(Cl)c2Cl)CC1 [Example 258] | ++ (++ = 71-90) | > 3000 nM | 
13 | COc1ccc(CCOc2ccc(C[C@H](N)C(=O)N3CCN(Cc4cccc(Cl)c4Cl)CC3)cc2)cc1OC [Example 259] | + (+ = 35-70) | > 3000 nM | 
14 | N[C@@H](Cc1ccc(OCCCc2ccc(OCc3ccccc3)cc2)cc1)C(=O)N1CCN(Cc2cccc(Cl)c2Cl)CC1 [Example 260] | +++ (+++ = 91-100) | < 1500 nM | 
15 | N[C@@H](Cc1ccc(OCCCc2ccccc2)cc1)C(=O)N1CCN(Cc2cccc(Cl)c2Cl)CC1 [Example 261] | +++ (+++ = 91-100) | < 1500 nM | 
16 | N[C@@H](Cc1ccc(OCCCCc2ccccc2)cc1)C(=O)N1CCN(Cc2cccc(Cl)c2Cl)CC1 [Example 262] | +++ (+++ = 91-100) | < 1500 nM | 
17 | CC(CCOc1ccc(C[C@H](N)C(=O)N2CCN(Cc3cccc(Cl)c3Cl)CC2)cc1)c1ccccc1 (some centres unmarked) [Example 263] | +++ (+++ = 91-100) | < 1500 nM | 
18 | COc1ccc(CCCOc2ccc(C[C@H](N)C(=O)N3CCN(Cc4cccc(Cl)c4Cl)CC3)cc2)cc1 [Example 264] | ++ (++ = 71-90) | 1500 to 3000 nM | 
19 | COc1ccc(CCCOc2ccc(C[C@H](N)C(=O)N3CCN(Cc4cccc(Cl)c4Cl)CC3)cc2)cc1OC [Example 265] | ++ (++ = 71-90) | < 1500 nM | 
20 | CCN(CCOc1ccc(C[C@H](N)C(=O)N2CCN(Cc3cccc(Cl)c3Cl)CC2)cc1)c1cccc(C)c1 [Example 282] | +++ (+++ = 91-100) | < 1500 nM | 
21 | CN(CCOc1ccc(C[C@H](N)C(=O)N2CCN(Cc3cccc(Cl)c3Cl)CC2)cc1)Cc1ccccc1 [Example 285] | ++ (++ = 71-90) | 1500 to 3000 nM | 
22 | CN(CCCOc1ccc(C[C@H](N)C(=O)N2CCN(Cc3cccc(Cl)c3Cl)CC2)cc1)Cc1ccccc1 [Example 287] | + (+ = 35-70) | > 3000 nM | 
23 | N[C@@H](Cc1ccc(-c2ccccc2)cc1)C(=O)N1CCN(Cc2cccc(Cl)c2Cl)CC1 [Example 289] |  | < 1500 nM | 
24 | Cc1ccc(-c2ccc(C[C@H](N)C(=O)N3CCN(Cc4cccc(Cl)c4Cl)CC3)cc2)cc1 [Example 290] |  | < 1500 nM | 91 to 100%
25 | CCc1ccc(-c2ccc(C[C@H](N)C(=O)N3CCN(Cc4cccc(Cl)c4Cl)CC3)cc2)cc1 [Example 291] |  | < 1500 nM | 91 to 100%
26 | N[C@@H](Cc1ccc(-c2ccc(OC(F)(F)F)cc2)cc1)C(=O)N1CCN(Cc2cccc(Cl)c2Cl)CC1 [Example 292] |  | < 1500 nM | 91 to 100%
27 | N[C@@H](Cc1ccc(-c2ccc3ccccc3c2)cc1)C(=O)N1CCN(Cc2cccc(Cl)c2Cl)CC1 [Example 293] |  | < 1500 nM | 91 to 100%

Row | Compound | Displacement Rate (%) (at 10 μM) | IC50 | inhibition at 10 µM
28 | N[C@@H](Cc1ccc(-c2ccc(Cl)c(Cl)c2)cc1)C(=O)N1CCN(Cc2cccc(Cl)c2Cl)CC1 [Example 294] |  | < 1500 nM | 91 to 100%
29 | CSc1ccc(-c2ccc(C[C@H](N)C(=O)N3CCN(Cc4cccc(Cl)c4Cl)CC3)cc2)cc1 [Example 295] |  | < 1500 nM | 91 to 100%
30 | N[C@@H](Cc1ccc(-c2ccc(F)cc2)cc1)C(=O)N1CCN(Cc2cccc(Cl)c2Cl)CC1 [Example 296] |  | < 1500 nM | 91 to 100%
31 | N[C@@H](Cc1ccc(-c2cc(C(F)(F)F)cc(C(F)(F)F)c2)cc1)C(=O)N1CCN(Cc2cccc(Cl)c2Cl)CC1 [Example 297] |  | < 1500 nM | 91 to 100%
32 | N[C@@H](Cc1ccc(-c2ccc(Cl)cc2)cc1)C(=O)N1CCN(Cc2cccc(Cl)c2Cl)CC1 [Example 298] |  | < 1500 nM | 91 to 100%
33 | N[C@@H](Cc1ccc(-c2cccc(Cl)c2Cl)cc1)C(=O)N1CCN(Cc2cccc(Cl)c2Cl)CC1 [Example 299] |  | < 1500 nM | 91 to 100%
34 | N[C@@H](Cc1ccc(-c2cccc3ccccc23)cc1)C(=O)N1CCN(Cc2cccc(Cl)c2Cl)CC1 [Example 300] |  | < 1500 nM | 91 to 100%
35 | N[C@@H](Cc1ccc(-c2cccc(Cl)c2)cc1)C(=O)N1CCN(Cc2cccc(Cl)c2Cl)CC1 [Example 301] |  | < 1500 nM | 91 to 100%
36 | N[C@@H](Cc1ccc(-c2ccc(Oc3ccccc3)cc2)cc1)C(=O)N1CCN(Cc2cccc(Cl)c2Cl)CC1 [Example 302] |  | < 1500 nM | 91 to 100%
37 | N[C@@H](Cc1ccc(-c2ccc(C(F)(F)F)cc2)cc1)C(=O)N1CCN(Cc2cccc(Cl)c2Cl)CC1 [Example 304] |  | < 1500 nM | 91 to 100%
38 | CC(C)(C)c1ccc(-c2ccc(C[C@H](N)C(=O)N3CCN(Cc4cccc(Cl)c4Cl)CC3)cc2)cc1 [Example 305] |  | < 1500 nM | 91 to 100%
39 | N[C@@H](Cc1ccc(-c2ccc(F)c(Cl)c2)cc1)C(=O)N1CCN(Cc2cccc(Cl)c2Cl)CC1 [Example 306] |  | < 1500 nM | 91 to 100%
40 | N[C@@H](Cc1ccc(-c2ccc(Cl)cc2Cl)cc1)C(=O)N1CCN(Cc2cccc(Cl)c2Cl)CC1 [Example 307] |  | < 1500 nM | 91 to 100%
41 | CCOc1cccc(-c2ccc(C[C@H](N)C(=O)N3CCN(Cc4cccc(Cl)c4Cl)CC3)cc2)c1 [Example 308] |  | < 1500 nM | 91 to 100%
42 | N[C@@H](Cc1ccc(-c2ccccc2F)cc1)C(=O)N1CCN(Cc2cccc(Cl)c2Cl)CC1 [Example 309] |  | < 1500 nM | 91 to 100%
43 | CCOc1ccc(-c2ccc(C[C@H](N)C(=O)N3CCN(Cc4cccc(Cl)c4Cl)CC3)cc2)cc1 [Example 310] |  | < 1500 nM | 91 to 100%
44 | N[C@@H](Cc1ccc(-c2cccc(F)c2)cc1)C(=O)N1CCN(Cc2cccc(Cl)c2Cl)CC1 [Example 311] |  | < 1500 nM | 91 to 100%
45 | N[C@@H](Cc1ccc(-c2cc(Cl)cc(Cl)c2)cc1)C(=O)N1CCN(Cc2cccc(Cl)c2Cl)CC1 [Example 312] |  | 1500 to 3000 nM | 91 to 100%
46 | Cc1ccccc1-c1ccc(C[C@H](N)C(=O)N2CCN(Cc3cccc(Cl)c3Cl)CC2)cc1 [Example 313] |  | 1500 to 3000 nM | 91 to 100%
47 | N[C@@H](Cc1ccc(-c2ccc(-c3ccccc3)cc2)cc1)C(=O)N1CCN(Cc2cccc(Cl)c2Cl)CC1 [Example 314] |  | 1500 to 3000 nM | 91 to 100%
48 | N[C@@H](Cc1ccc(-c2ccccc2C(F)(F)F)cc1)C(=O)N1CCN(Cc2cccc(Cl)c2Cl)CC1 [Example 315] |  | 1500 to 3000 nM | 91 to 100%
49 | COc1ccc(-c2ccc(C[C@H](N)C(=O)N3CCN(Cc4cccc(Cl)c4Cl)CC3)cc2)cc1 [Example 317] |  | 1500 to 3000 nM | 91 to 100%
50 | Cc1cccc(-c2ccc(C[C@H](N)C(=O)N3CCN(Cc4cccc(Cl)c4Cl)CC3)cc2)c1 [Example 318] |  | 1500 to 3000 nM | 91 to 100%
51 | N[C@@H](Cc1ccc(-c2ccc3c(c2)OCO3)cc1)C(=O)N1CCN(Cc2cccc(Cl)c2Cl)CC1 [Example 319] | ++ (++ = 71-90) | 1500 to 3000 nM | 
52 | COc1ccc(OC)c(-c2ccc(C[C@H](N)C(=O)N3CCN(Cc4cccc(Cl)c4Cl)CC3)cc2)c1 [Example 320] | +++ (+++ = 91-100) | 1500 to 3000 nM | 
53 | N[C@@H](Cc1ccc(-c2ccccc2Cl)cc1)C(=O)N1CCN(Cc2cccc(Cl)c2Cl)CC1 [Example 321] |  | 1500 to 3000 nM | 91 to 100%
54 | COc1ccc(-c2ccc(C[C@H](N)C(=O)N3CCN(Cc4cccc(Cl)c4Cl)CC3)cc2)c(OC)c1 [Example 322] | ++ (++ = 71-90) | 1500 to 3000 nM | 
